According to patent publication US20210391038A1, “SPECIFICALLY-SHAPED CRYSTAL OF COMPOUND AND METHOD FOR PRODUCING SAME” (TOWA PHARMACEUTICAL CO., LTD., priority 2018, published 2021):
Where two headings read alike, the source gives them in different places.

What was measured:
Format in all cases: physicochemical
[1] = Particle strength
From the text: Furthermore, a polycrystal with a high particle density also has a high particle strength. When a polycrystal, particularly a spherulite, is used as a raw material for production of drugs, a problem occurs in which wear in a formulation step leads to deterioration of yield or quality or both, and a polycrystal with a high particle strength has an advantage in this regard. When a specifically-shaped crystal obtained by the present invention is a polycrystal, the particle strength is preferably 1.0 MPa or more, more preferably 1.5 MPa or more, still more preferably 2.0 MPa, yet more preferably 2.5 MPa or more, and particularly preferably 3.0 MPa or more. The particle strength is calculated by measuring the force at which a particle breaks when load is applied to one particle and the particle size. Specifically, the particle strength is calculated by the following formula in accordance with JIS R 1639-5. Examples of a measuring device include a particle hardness measuring device NEW GRANO manufactured by OKADA SEIKO CO., LTD. and a micro compression testing machine MCT manufactured by Shimadzu Corporation. […]
The particle strength of the spherulite of esomeprazole magnesium trihydrate obtained in Example 2, the spherulite of esomeprazole magnesium trihydrate obtained in Example 5, and the spherulite of esomeprazole magnesium trihydrate obtained in Example 6 was measured.

[2] = Particle size distribution (d50, sharpness index); design: key to sharpness index of the crystal thus obtained / sharpness index of the fine powders: calculated by formula from d10, d50, d90; 1.0 = most uniform particle size; conditions: for d50: samples of dissolution test (Table 4)
From the text: d10 in the present description is a value obtained from a particle size distribution analyzer, and represents a particle size of a particle corresponding to 10% of accumulation from the smaller particle side in the particle size distribution based on the volume.
d50 in the present description is a value obtained from a particle size distribution analyzer, and represents a particle size of a particle corresponding to 50% of accumulation from the smaller particle side in the particle size distribution based on the volume.
“Sharpness index” in the present description is an index representing the uniformity of a particle size of a particle in a powder, and a sharpness index of 1.0 represents a powder having the most uniform particle size. The closer the sharpness index is to 1.0, the more the particle size of the powder is uniform. Specifically, the sharpness index represents a value calculated using the following formula from the values of d10, d50, and d90 measured by a particle size distribution analyzer:
Images for measuring the number of particles were obtained by a scanner GT-X830 manufactured by SEIKO EPSON CORPORATION. The powder X-ray diffraction (XRD) was measured using a desktop X-ray diffraction device MiniFlex300 manufactured by Rigaku Corporation. […] The particle strength was measured using a particle hardness measuring device NEW GRANO manufactured by OKADA SEIKO CO., LTD. […] The purity of a compound was measured by a high performance liquid chromatograph (LC-20A) manufactured by Shimadzu Corporation.

[3] = Sphericity from SEM images (ImageJ); design: key: 1 = true sphere; closer to 1 = more spherical; mean of ≥5 particles; conditions: trihydrate; for sphericity of the spherulite: SEM image analysis, mean of particles
[4] = Specific surface area (BET fluid process); conditions: nitrogen, trihydrate
Procedure: The particle size distribution was measured in a dry manner using a spray particle size distribution analyzer AEROTRAC LDSA-SPR3500A manufactured by Microtrac Inc. The particle size distribution in Examples 2 and 7 was measured in a dry manner using a laser diffraction particle size distribution measurement MASTERSIZER 3000 manufactured by Malvern Panalytical Ltd. SEM images were measured using a scanning electron microscope JSM-IT100 manufactured by JEOL Ltd. Light microscope images were measured using an upright microscope BX53M manufactured by Olympus Corporation and a microscope digital camera DP74 manufactured by Olympus Corporation. […] The powder X-ray diffraction (XRD) was measured using a desktop X-ray diffraction device MiniFlex300 manufactured by Rigaku Corporation. The specific surface area was measured by the BET fluid process (gas used: pure nitrogen) using a fully automatic specific surface area measuring device Macsorb HM-1208 manufactured by Mountech Co., Ltd. The moisture content was measured using a trace moisture measuring device AQ-2200 manufactured by […] SANGYO Co., Ltd. The dissolution profile was measured using μDISS Profiler manufactured by Pion Inc. Centrifugal classification was performed using a high-efficiency precision forced air classifier Lab Calssiel N-01 manufactured by SEISHIN […] […]

[5] = Measurement of dissolution profile (μDISS Profiler); conditions: 30 mg in 10 mL phosphate buffer pH 6.8, 37° C., 300 rpm
Procedure: The dissolution profile is described by the zero-order model, the first-order model, the Weibull model, the Higuchi model, the Hixson-Crowell model, the Korsmeyer-Peppas model, the Baker-Lonsdale model, the Hopfenberg model, and the like. The Weibull model is represented by the following formula: […]
The particle size distribution was measured in a dry manner using a spray particle size distribution analyzer AEROTRAC LDSA-SPR3500A manufactured by Microtrac Inc. The particle size distribution in Examples 2 and 7 was measured in a dry manner using a laser diffraction particle size distribution measurement MASTERSIZER 3000 manufactured by Malvern Panalytical Ltd. SEM images were measured using a scanning electron microscope JSM-IT100 manufactured by JEOL Ltd. Light microscope images were measured using an upright microscope BX53M manufactured by Olympus Corporation and a microscope digital camera DP74 manufactured by Olympus Corporation. […] The powder X-ray diffraction (XRD) was measured using a desktop X-ray diffraction device MiniFlex300 manufactured by Rigaku Corporation. The specific surface area was measured by the BET fluid process (gas used: pure nitrogen) using a fully automatic specific surface area measuring device Macsorb HM-1208 manufactured by Mountech Co., Ltd. The moisture content was measured using a trace moisture measuring device AQ-2200 manufactured by […] […]

[6] = calculated from d10, d50, d90, trihydrate
[7] = dry particle size distribution, volume based, trihydrate

| SMILES | Particle strength ([1]; trihydrate) [MPa] | d50 of the crystal thus obtained [2] | sharpness index of the crystal thus obtained [2] | sphericity of the spherulite [3] | Specific surface area [4] [m^2/g] | d50 ([2]; trihydrate) [μm] | sphericity of the non-spherulite ([3]; non-spherulite crystals) | Particle strength [1] [MPa] | sharpness index of the crystal thus obtained [2, 6] | d50 of the crystal thus obtained [2, 7] [μm] | dissolution compared with the non-spherulite [5] |
| --- | --- | --- | --- | --- | --- | --- | --- | --- | --- | --- | --- |
| COc1ccc2[n-]c([S@@+]([O-])Cc3ncc(C)c(OC)c3C)nc2c1.COc1ccc2[n-]c([S@@+]([O-])Cc3ncc(C)c(OC)c3C)nc2c1.O.O.O.[Mg+2] [Example 6, esomeprazole magnesium trihydrate] | 2.9 ± 0.5 | 91.5 | 1.45 | 0.96±0.01 | – | – | – | – | – | – | – |
| COc1ccc2[n-]c([S@@+]([O-])Cc3ncc(C)c(OC)c3C)nc2c1.COc1ccc2[n-]c([S@@+]([O-])Cc3ncc(C)c(OC)c3C)nc2c1.O.O.O.[Mg+2] [Ground product of non-spherulite, esomeprazole magnesium trihydrate] | – | – | – | – | 44.0 | 5.1 | 0.45±0.23 | – | – | – | – |
| COc1ccc2[n-]c([S@@+]([O-])Cc3ncc(C)c(OC)c3C)nc2c1.COc1ccc2[n-]c([S@@+]([O-])Cc3ncc(C)c(OC)c3C)nc2c1.O.O.O.[Mg+2] [Example 5, esomeprazole magnesium trihydrate] | – | – | – | 0.89±0.05 | – | – | – | 2.3 ± 0.4 | 1.4 | 149.9 | – |
| COc1ccc2[n-]c([S@@+]([O-])Cc3ncc(C)c(OC)c3C)nc2c1.COc1ccc2[n-]c([S@@+]([O-])Cc3ncc(C)c(OC)c3C)nc2c1.O.O.O.[Mg+2] [Example 8(1), esomeprazole magnesium trihydrate] | – | – | – | 0.95±0.03 | 22.6 | 33.0 | – | – | 2.2 | 33.0 | more rapid dissolution |
